# Source: patent publication US7022733B2, “Substituted 2-phenyl benzofurans as estrogenic agents” (Wyeth, priority 2001, dated 2006)
# Where a name gives a salt, the structure may show the parent alone.
row,melting point,SMILES
1,> 250 °C,"CC(C)OC(=O)c1cc(O)cc2cc(-c3ccc(O)cc3)oc12 [Example 36, 5-Hydroxy-2(4hydroxy-phenyl)-benzofuran-7-carboxylic acid Isopropyl ester]"
2,337 to 339 °C,"Oc1ccc(-c2cc3cc(O)cc(CBr)c3o2)cc1 [Example 4, 7-Bromomethyl-2-(4-hydroxy-phenyl)-benzofuran-5-ol]"
3,210 to 214 °C,"Oc1ccc(-c2cc3c(Cl)c(O)ccc3o2)cc1 [Example 131, 4-Chloro-2-(4-hydroxy-phenyl)-benzofuran-5-ol]"
4,177 to 182 °C,"CC(O)c1c(-c2ccc(O)cc2)oc2ccc(O)cc12 (stereo not drawn) [Example 113, 3-(1-Hydroxy-ethyl)-2-(4-hydroxy-phenyl)-benzofuran-5-ol]"
5,167 to 169 °C,"Cc1cc(O)ccc1-c1cc2cc(O)ccc2o1 [Example 80, 2-(4-Hydroxy-2-methyl-phenyl)-benzofuran-5-ol]"
6,165 to 171.68 °C,"COc1c(O)ccc2oc(-c3ccc(O)cc3)cc12 [Example 132, 2-(4-Hydroxy-phenyl)-4-methoxy-benzofuran-5-ol]"
7,166 to 168 °C,"CCOCc1cc(O)cc2cc(-c3ccc(O)cc3)oc12 [Example 7, 7-Ethoxymethyl-2-(4-hydroxy-phenyl)-benzofuran-5-ol]"
8,236 to 238 °C,"COC(=O)c1cc(O)cc2cc(-c3ccc(O)cc3)oc12 [Example 38, 5-Hydroxy-2-(4-hydroxy-phenyl)-benzofuran-7-carboxylic acid methyl ester]"
9,260 to 262 °C,"O=C(O)c1cc(O)cc2cc(-c3ccc(O)cc3)oc12 [Example 24, 5-Hydroxy-2-(4-hydroxy-phenyl)-benzofuran-7-carboxylic acid]"
10,186 to 187 °C,"Oc1ccc2oc(-c3cc(OCc4ccccc4)c(O)cc3-c3ccccc3)cc2c1 [Example 104, 2-(4-Benzyloxy-5-hydroxy-biphenyl-2-yl)-benzofuran-5-ol]"
11,251 to 254 °C,"Nc1cc(O)cc2cc(-c3ccc(O)cc3)oc12 [Example 100, 7-Amino-2-(4-hydroxy-phenyl)-benzofuran-5-ol]"
12,152 to 154 °C,"Oc1ccc(-c2cc3cc(F)cc(F)c3o2)cc1 [Example 94, 4-(5,7-Difluoro-benzofuran-2-yl)-phenol]"
13,172 to 174 °C,"CC(C)(C)c1ccc2oc(-c3ccc(O)cc3)cc2c1 [Example 92, 4-(5-tert-Butyl-benzofuran-2-yl)-phenol]"
14,275 °C (dec.),"NC(=O)C=Cc1cc(O)cc2cc(-c3ccc(O)cc3)oc12 [Example 61, 3-[5-Hydroxy-2-(4-hydroxyphenyl)-benzofuran-7-yl]-acrylamide]"
15,192 to 194 °C,"CC(C)c1cc(O)cc2cc(-c3ccc(O)cc3)oc12 [Example 118, 2-(4-Hydroxy-phenyl)-7-isopropyl-benzofuran-5-ol]"
16,260 to 266 °C,"Oc1ccc(-c2cc3cc(O)cc(-c4nnco4)c3o2)cc1 [Example 138, 2-(4-Hydroxy-phenyl)7-[1,3,4]oxadiazol-2-yl-benzofuran-5-ol]"
17,210 to 213 °C,"Oc1ccc(-c2cc3cc(O)cc(CC(F)(F)F)c3o2)cc1 [Example 141, 2-(4-Hydroxy-phenyl)-7-(2,2,2-trifluoro-ethyl)-benzofuran-5-ol]"
18,195 °C,"Oc1ccc(-c2cc3cc(O)ccc3o2)c(Br)c1 [Example 102, 2-(2-Bromo-4-hydroxy-phenyl)-benzofuran-5-ol]"
19,243 to 251 °C,"CC(=O)c1c(-c2ccc(O)cc2)oc2ccc(O)cc12 [Example 110, 1-[5-Hydroxy-2-(4-hydroxy-phenyl)-benzofuran-3-yl]-ethanone]"
20,178 to 180 °C,"CCCc1cc(O)cc2cc(-c3ccc(O)cc3)oc12 (as salt: HCl) [Example 35, 2-(4-Hydroxy-phenyl)-7-propyl-benzofuran-5-ol]"
21,284 °C,"CC(C)(C#N)c1cc(O)cc2cc(-c3ccc(O)cc3)oc12 [Example 22, 2-[5-Hydroxy-2-(4-hydroxy-phenyl)-benzofuran-7-yl]-2-methyl-propionitrile]"
22,205 °C (dec.),"COc1cc(O)c(C=NO)c2cc(-c3ccc(O)cc3)oc12 [Example 72, 5-Hydroxy-2-(4-hydroxy-phenyl)-7-methoxy-benzofuran-4-carbaldehyde oxime]"
23,175 to 177 °C,"Oc1ccc(-c2cc3cc(O)cc(CSc4ccccc4)c3o2)cc1 [Example 12, 2-(4-Hydroxy-phenyl)-7-phenylsulfanylmethyl-benzofuran-5-ol]"
24,181 to 183 °C,"CCSCc1cc(O)cc2cc(-c3ccc(O)cc3)oc12 [Example 11, 7-Ethylsulfanylmethyl-2-(4-hydroxy-phenyl)-benzofuran-5-ol]"
25,183 to 185 °C,"CC(C#N)c1cc(O)cc2cc(-c3ccc(O)cc3)oc12 (stereo not drawn) [Example 21, 2-[5-Hydroxy-2-(4-hydroxy-phenyl)-benzofuran-7-yl]-propionitrile]"
26,269 to 271 °C,"Oc1ccc(-c2cc3cc(O)cc(Cn4ccnc4)c3o2)cc1 [Example 16, 2-(4-Hydroxy-phenyl)-7-imidazol-1-ylmethyl-benzofuran-5-ol]"

row,melting point,SMILES
1,265 to 267 °C,"COc1cc(O)c(C#N)c2cc(-c3ccc(O)c(F)c3)oc12 [Example 73a, 2-(3-Fluoro-4-hydroxy-phenyl)-5-hydroxy 7-methoxy-benzofuran-4-carbonitrile]"
2,266 to 269 °C,"Oc1ccc(-c2cc3cc(O)ccc3o2)c(-c2ccc(OCCN3CCCC3)cc2)c1 (as salt: hydrochloride) [Example 108, 2-[5-Hydroxy-4′-(2-pyrrolidin-1-yl-ethoxy)-biphenyl-2-yl]-benzofuran-5-ol]"
3,218 to 222 °C,"Oc1ccc2oc(-c3ccc(O)c(F)c3)cc2c1 [Example 126, 2-(3-Fluoro-4-hydroxy-phenyl)-benzofuran-5-ol]"
4,221 to 223 °C,"CCOC(=O)c1cc(O)cc2cc(-c3ccc(O)cc3)oc12 [Example 39, 5-Hydroxy-2-(4-hydroxy-phenyl)-benzofuran-7-carboxylic acid ethyl ester]"
5,182 to 184 °C,"C=Cc1cc(O)cc2cc(-c3ccc(O)cc3)oc12 [Example 67, 2-(4-Hydroxy-phenyl)-7-vinyl-benzofuran-5-ol]"
6,231 to 234 °C,"COC(=O)C=Cc1cc(O)cc2cc(-c3ccc(O)cc3)oc12 [Example 59, 3-[5-Hydroxy-2-(4-hydroxy-phenyl)benzofuran-7-yl]-acrylic acid methyl ester]"
7,258 to 260 °C,"OCc1cc(O)cc2cc(-c3ccc(O)cc3)oc12 [Example 25, 7-Hydroxymethyl-2-(4-hydroxy-phenyl)-benzofuran-5-ol]"
8,220 to 222 °C,"CCCOC(=O)c1cc(O)cc2cc(-c3ccc(O)cc3)oc12 [Example 37, 5-Hydroxy-2-(4-hydroxy-phenyl)-benzofuran-7-carboxylic acid propyl ester]"
9,248 to 250 °C,"OCc1ccc2oc(-c3ccc(O)cc3)cc2c1 [Example 144, 4-(5-Hydroxymethyl-benzofuran-2-yl)-phenol]"
10,215 to 216 °C,"O=C(c1cc(O)cc2cc(-c3ccc(O)cc3)oc12)C(F)(F)F [Example 68, 2,2,2-Trifluoro-1-[5-hydroxy-2-(4-hydroxy-phenyl)-benzofuran-7-yl]-ethanone]"
11,125 to 127 °C,"CON(C)C(=O)c1cc(O)cc2cc(-c3ccc(O)cc3)oc12 [Example 119, 5-Hydroxy-2-(4-hydroxy-phenyl)-benzofuran-7-carboxylic acid methoxy-methyl-amide]"
12,190 to 192 °C,"N#CSCc1cc(O)cc2cc(-c3ccc(O)cc3)oc12 [Example 15, 2-(4-Hydroxy-phenyl)-7-thiocyanatomethyl-benzofuran-5-ol]"
13,202 to 204 °C,"Oc1ccc(-c2cc3cc(F)ccc3o2)cc1 [Example 91, 4-(5-Fluoro-benzofuran-2-yl)-phenol]"
14,196 to 198 °C,"Oc1ccc(-c2cc3c(Br)c(O)ccc3o2)cc1 [Example 130, 4-Bromo-2-(4-hydroxy-phenyl)-benzofuran-5-ol]"
15,215 to 217 °C,"Oc1ccc(-c2cc3c(Br)c(O)cc(Br)c3o2)cc1 [Example 63, 4,7-Dibromo-2-(4-hydroxy-phenyl)-benzofuran-5-ol]"
16,218 to 220 °C,"CCc1cc(O)cc2cc(-c3ccc(O)cc3)oc12 [Example 30, 7-Ethyl-2-(4-hydroxy-phenyl)-benzofuran-5-ol]"
17,167 to 170 °C,"COC(=O)CCc1cc(O)cc2cc(-c3ccc(O)cc3)oc12 [Example 60, 3-[5-Hydroxy-2-(4-hydroxy-phenyl)-benzofuran-7-yl]-propionic acid methyl ester]"
18,> 300 °C,"O=C(O)c1ccc2oc(-c3ccc(O)cc3)cc2c1 [Example 143, 2-(4-Hydroxy-phenyl)-benzofuran-5-carboxylic acid]"
19,> 230 °C,"N#Cc1c(O)ccc2oc(-c3ccc(O)cc3)cc12 [Example 135, 5-Hydroxy-2-(4-hydroxy-phenyl)-benzofuran-4-carbonitrile]"
20,186 to 188 °C,"COCc1cc(O)cc2cc(-c3ccc(O)cc3)oc12 [Example 6, 2-(4-Hydroxy-phenyl)-7-methoxymethyl-benzofuran-5-ol]"
21,217 °C,"CC(=NO)c1c(-c2ccc(O)cc2)oc2ccc(O)cc12 [Example 111, 1-[5-Hydroxy-2-(4-hydroxy-phenyl)-benzofuran-3-yl]-ethanone oxime]"
22,203 to 205 °C,"Oc1ccc(-c2cc3cc(Br)cc(Br)c3o2)cc1 [Example 95, 4-(5,7-Dibromo-benzofuran-2-yl)-phenol]"
23,195 to 197 °C,"CC(C)OCc1cc(O)cc2cc(-c3ccc(O)cc3)oc12 [Example 8, 2-(4-Hydroxy-phenyl)-7-isopropoxymethyl benzofuran-5-ol]"
24,188 to 190 °C,"CSCc1cc(O)cc2cc(-c3ccc(O)cc3)oc12 [Example 10, 2-(4-Hydroxy-phenyl)-7-methylsulfanylmethyl-benzofuran-5-ol]"
25,128 to 130 °C,"COc1ccc(-c2cc3cc(OC)cc(CO)c3o2)cc1 [Example 3, [5-Methoxy-2-(4-methoxy-phenyl)-benzofuran-7-yl]-methanol]"
